Source: patent US20230285568A1, “ENGINEERING DIVERSE ANTIGEN-PRESENTING CELLS TO CONTROL ANTIGEN-SPECIFIC RESPONSES” (University of Maryland, Baltimore, priority 2020, published 2023)

Test system: OVA-specific CD4+ T (OT-II) cells
Assay: BMDC/B cell co-culture with OT-II cells, CFSE dilution and CD25 expression
Format: cell-based, mouse
Details: BMDCs and B cells, 3-day co-culture
Experimental: T cell proliferation studies assays were carried out as described. The assay was carried out in T cell media. BMDCs (2×10^4/well) or B cells (2×10^4/well) were seeded into 96-well round-bottom cell culture plates and incubated with LAg-nano or PAg-nano at various particle concentrations and Ag loadings for 3 hours. Following incubation, all wells were washed to remove excess particles that had not been internalized by cells. Cells were co-cultured with 2×10^4/well of each OTI (CD8) and OTII (CD4) T cells). Groups receiving antigen in lieu of LAg-nano or PAg-nano received soluble OVA323-339 or SIINFEKL (SEQ ID NO:1; 100 ng/mL) at this time. After 3 days of co-culture, the T cells were collected, stained for viability, CD4, and CD8 and analyzed using flow cytometry. The extent of T cell proliferation was analyzed by CFSE dilution using flow cytometry. Ag processing kinetics in B cells was determined by loading with long GP100, KVPRNQDWL (SEQ ID NO:4; short GP100), or lipid-long GP100, […] (lipid-GP100; SEQ ID NO:3). […]
BMDCs and B cells loaded with unmodified ovalbumin (OVA) MHC II-restricted antigen (OVA323-339) or lipo-OVA323-339 were co-cultured with OVA-specific CD4^+ T (OT-II) cells for 3 days. CD25+ expression was detected and the proliferation and division indices were calculated. […] FIGS. 11E through 11H show quantitation of the proliferation and division indices of OT-II T cells. […]

Substance: Lipo-OVA323-339: DSPE-PEG2000 lipid conjugated to OVA323-339 (ISQAVHAAHAEINEAGR; SEQ ID NO:2)
- APC internalization and MHC II-restricted presentation to OTII CD4+ T cells: enables APC internalization and promotes MHC II-restricted presentation
